Consider two compounds from patent publication US8084602B2, “Porphyrin derivatives and their use in photodynamic therapy” (Destiny Pharma Limited, priority 2002, dated 2011).

Data set [1] has as its system Staphylococcus aureus (methicillin-resistant strain ATTC BAA-44). Description: Initial screening: growth inhibition after white light illumination. The following applies: Staphylococcus aureus. Type of data set: cell-based. The procedure: (§1) The toxic effects of exemplary compounds of the invention against two bacterial strains, the Gram negative bacterium Escherichia coli (strain ATCC 25922) and the Gram positive bacterium Staphylococcus aureus (methicillin-resistant strain ATTC BAA-44), were evaluated by measuring the extent of growth inhibition (bacteriostatic effect) and growth […] (cytocidal effect) in the dark and upon light exposure. Initial compound screening was undertaken using white light [390-740 nm] (150 mW/cm^2) for various timepoints of a concentration of 3 μM (see Table 1). Further experiments were undertaken on those compounds identified from this initial screen using a light source emitting light at a wavelength between 417-420 nm at 15.2 mW/cm^2, 13.68 J/cm^2 (Waldmann Eclairage SA, France) (see Table 20.
(§2) The following protocol was used for the initial screening of the exemplary compounds (Table 1) (see Reddi et al., 2002, Photochem. Photobiol. 75(5):462-470): • (i) E. coli and S. aureus cells were grown overnight on brain heart infusion agar, resuspended in brain heart infusion broth, harvested by centrifugation (3000 g for 15 minutes) and washed once with phosphate buffered saline (PBS) at pH 7.4 consisting 2.7 mM KCl and 0.14 M NaCl. • (ii) The cells were then resuspended in PBS to an optical density at 650 nm of 0.7, which corresponds to a density of 10^8 to 10^9 cells/ml. • (iii) Next, the cells were incubated in PBS in the dark for 5 minutes with 3.0 μM of the compound to be tested. • (iv) After dark incubation, cells were illuminated with white light (wavelength: 390 to 740 nm) (150 mW/cm^2) for up to 30 minutes. During illumination, the cells were kept at 37° C. and magnetically stirred. • (v) Finally, treated and untreated (control) cells were diluted in brain heart infusion broth and maintained at […] while the absorbance of the suspension at 650 nm was monitored at predetermined time points for determining growth curves.
(§3) The percent of growth inhibition in the treated cells was calculated by the following equation: [1−(Ax−A0)/(Ac−A0)]×100 where Ax Ac are the absorbances measured after 3 hours incubation, for the treated and control cell suspensions, respectively, and A0 represents the initial absorbance.

Data set [2] relates to Escherichia coli (strain ATCC 25922). The data set is described as above. In kind it is cell-based. The following applies: Escherichia coli. The procedure:
as §1, §2, §3

Data set [3] can be described thus: Photostability (photobleaching). In kind it is physicochemical. Conditions: 30 minutes illumination. The text has this: A bespoke light source capable of delivering light of an appropriate wavelength (417 nm) was developed to activate the test compounds (Waldmann light source 236). […] It consists of a light box (493 mm length×278 mm width×93.3 mm height) where the samples to be tested are placed on the top surface of the light box and illuminated from below.
The photostability of the exemplary compounds was investigated using standard photodynamic procedures. […] The solution was illuminated for various periods: 10, 20 and 30 minutes. After each predetermined illumination period, the absorbance at 404 nm corresponding to the maximum absorption peak of the compound was measured. Parallel experiments were undertaken where the absorbance of Compound 10 solutions that had been kept in the dark for the same time periods as the illumination time periods were measured. Over the 30 minutes period of illumination a small loss in the absorbance value at 404 nm was observed (see FIG. 10A).
The susceptibility of the Compound 10 to photobleaching when subjected to a light at a higher fluence rate (150 mW/cm^2; i.e. ten times that used normally) was investigated. With this illumination system, the solution was kept in a quartz cuvette during illumination while an equivalent solution was kept in the dark.

Structures are written as SMILES. Where two headings read alike, the source gives them in different places.

For orientation: inhibition means the share of the control response that was lost under treatment.

As to `CN(C)CCC[N+](C)(C)CCCOc1ccc(-c2c3nc(cc4ccc([nH]4)c(-c4ccc(OCCC[N+](C)(C)CCCN(C)C)cc4)c4nc(cc5ccc2[nH]5)C=C4)C=C3)cc1.[Cl-].[Cl-]` [Compound 8, 5,15-bis-(4-{3-[(3-Dimethylamino-propyl)-dimethylammonio]-propyloxy}-phenyl)-porphyrin dichloride], the inhibition at 3 µM in data set [1] (BAA44, 5 min, read-out: Growth inhibition (%), S. aureus, 5 min incubation, illumination time 5 min) was found to be 100%; in data set [1] (BAA44, read-out: Growth inhibition (%), S. aureus, 5 min incubation, illumination time 0 min), 80%; in data set [1] (BAA44, read-out: Growth inhibition (%), S. aureus, 5 min incubation, illumination time 1 min), 99%; in data set [1] (BAA44, read-out: Growth inhibition (%), S. aureus, 5 min incubation, illumination time 10 min) it was 100%; in data set [1] (BAA44, read-out: Growth inhibition (%), S. aureus, 5 min incubation, illumination time 15 min), 100%; in data set [1] (BAA44, read-out: Growth inhibition (%), S. aureus, 5 min incubation, illumination time 30 min), 100%. Also, the inhibition at 3 µM in data set [2] (ATCC25922, 5 min, read-out: Growth inhibition (%), E. coli, 5 min incubation, illumination time 5 min) worked out at 100%; in data set [2] (ATCC25922, read-out: Growth inhibition (%), E. coli, 5 min incubation, illumination time 0 min) it was 23%; in data set [2] (ATCC25922, read-out: Growth inhibition (%), E. coli, 5 min incubation, illumination time 1 min), 69%; in data set [2] (ATCC25922, read-out: Growth inhibition (%), E. coli, 5 min incubation, illumination time 10 min), 100%; in data set [2] (ATCC25922, read-out: Growth inhibition (%), E. coli, 5 min incubation, illumination time 15 min), 100%; in data set [2] (ATCC25922, read-out: Growth inhibition (%), E. coli, 5 min incubation, illumination time 30 min), 100%.
As for `C[N+](C)(C)CCCOc1ccc(-c2c3nc(cc4ccc([nH]4)c(-c4ccc(OCCC[N+](C)(C)C)cc4)c4nc(cc5ccc2[nH]5)C=C4)C=C3)cc1.[Cl-].[Cl-]` [Compound 10, 5,15-bis-[4-(3-Trimethylammonio-propyloxy)-phenyl]-porphyrin dichloride], the “loss in the absorbance value at 404 nm” value in data set [3] (10 μM in phosphate-buffered saline/ethanol, blue light 15 mW/cm^2) is reported as “small loss”. The “reduction of absorbance caused by photobleaching” value in data set [3] (10 μM, 150 mW/cm^2) is given as 15-20%.
